{"source": "paper PMC13095408", "about": "“DBeQ derivative targets vacuolar protein sorting 4 functions in cancer cells and suppresses tumor growth in mice” (The Journal of Pharmacology and Experimental Therapeutics, 2025)", "key": {"[1]": {"tested_on": "GFP-CHMP4B-expressing U2OS cells", "assay": "GFP-CHMP4B accumulation cell-based assay (high-content microscopy)", "procedure,_shortened": "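GFP-CHMP4B U2OS cells were cultured overnight, stained, then treated in SM with compounds (0.1% DMSO or 0.1% DMSO/0.1% ethanol vehicle final). High-content imaging used a 20× NA .70 objective at set intervals, ≥300 cells/well over 3 fields/well.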"}, "[2]": {"assay": "Thermodynamic solubility", "format": "physicochemical", "conditions": "FaSSIF-V2 buffer, thermodynamic from solid; In FaSSIF-V2, pH 6.5"}, "[3]": {"assay": "Caco-2 permeability", "format": "in vitro ADME", "conditions": "human, 10 μM of compound", "protocol": "(§1) All in vitro absorption, distribution, metabolism, and excretion (ADME) studies were conducted by BioDuro-Sundia. […] Caco-2 permeability, human liver microsomal stability, and human plasma protein binding assays as well as liquid chromatography-mass spectrometry/mass spectrometry analyses were performed following standard protocols previously described in detail ([Kazakova et al, 2023])."}, "[4]": {"assay": "Human liver microsomal stability", "format": "in vitro ADME", "conditions": "Human liver microsomes, 1 μM of compound", "protocol": "as §1"}, "[5]": {"assay": "Human plasma protein binding", "format": "in vitro ADME", "conditions": "5 μM of compound", "protocol": "as §1"}, "[6]": {"tested_on": "9464D s.c. tumors", "assay": "9464D syngeneic mouse model of neuroblastoma", "format": "in vivo", "conditions": "5 mg/kg/day, i.p.", "protocol": "To establish a syngeneic tumor mouse model, 9464D cells were resuspended in 50% Matrigel Matrix in 1× PBS at a concentration of […] and a total of 0.1 mL of this mixture (1 × 10^6 cells) was subcutaneously injected into the flank of each of the 6 to 8-week-old B6 mice (n = 19; 12 M, 7 F). Fourteen days after engraftment, mice began daily intraperitoneal administration of either vehicle (n = 9; 6 M, 3 F) or 5 mg/kg 4-107 (n = 10; 6 M, 4 F). Mouse tumor volume was measured weekly, then every 1–3 days once vehicle-treated tumors reached 1000–2000 mm^3. Tumor volume was calculated as πLW^2/6 using length (L) and width (W) caliper measurements. Mouse body weight was measured daily. Humane endpoints were defined as tumor volume reaching 4000 mm^3 or mice reaching the aforementioned toxicity endpoints, at which point the affected mice were euthanized. The experimental endpoint was determined as the time when the majority of tumors from the control group reached 4000 mm^3."}, "[7]": {"biological_target": "T1, VPS4B (Homo sapiens, UniProt O75351)", "T1 sequence (O75351 1-444)": "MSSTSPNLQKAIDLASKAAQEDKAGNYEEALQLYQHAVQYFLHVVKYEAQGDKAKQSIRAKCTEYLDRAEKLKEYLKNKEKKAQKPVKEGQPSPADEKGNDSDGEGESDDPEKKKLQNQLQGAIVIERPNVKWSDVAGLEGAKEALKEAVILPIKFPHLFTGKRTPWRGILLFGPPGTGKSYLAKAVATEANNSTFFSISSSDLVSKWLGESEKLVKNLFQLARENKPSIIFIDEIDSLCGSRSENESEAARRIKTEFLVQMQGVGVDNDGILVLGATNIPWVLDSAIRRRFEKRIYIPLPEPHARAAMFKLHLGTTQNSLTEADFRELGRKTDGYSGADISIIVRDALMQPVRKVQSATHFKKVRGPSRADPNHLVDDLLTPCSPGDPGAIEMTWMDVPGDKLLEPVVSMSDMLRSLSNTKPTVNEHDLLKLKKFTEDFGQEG", "assay": "VPS4B cellular thermal shift assay (CETSA)", "format": "cell-based", "set-up": "endogenous in cells; host or cells: U2OS", "conditions": "2 μM 4-107, 1 hour, starved U2OS cells", "protocol": "The VPS4B CETSA was performed as previously described with modification ([Jafari et al, 2014]). In 10-cm dishes, near-confluent U2OS cells were rinsed with 1× DPBS and treated with the indicated compounds in acclimatized SM for 1 hour at 37 °C (0.1% DMSO). Cells were trypsinized, pelleted at 300 × g for 5 minutes, and washed with 1× PBS. After repeat pelleting at 300 × g for 5 minutes, the cells were resuspended in 1× PBS with protease inhibitor cocktail (1:250) and aliquoted into PCR strips with 20 μL per tube. PCR strips for each treatment were heated on a temperature gradient for 3 minutes using a thermal cycler (Bio-Rad Laboratories), followed by incubation at RT for 3 minutes. […] To normalize protein loading for SDS-PAGE, the soluble protein concentration of each 37 °C sample was quantified via the Pierce BCA assay ([…]), and a volume equal to 10 μg of protein was used for all samples from the same treatment. […] Signals were acquired with the Odyssey CLx (LI-COR) and quantified via densitometry using Image Studio version 6 (LI-COR). The remaining VPS4B levels were calculated by first obtaining the ratio of VPS4B:ACTB band intensities of each sample and then normalizing these ratios to that of the respective 37 °C sample. […]"}}}
{"smiles": "COc1cccc2c(NCc3ccccc3)nc(NCc3ccccc3)nc12", "note": "[Compound 4-107, N^2,N^4-dibenzyl-8-methoxyquinazoline-2,4-diamine]", "values": [{"measurement": "GFP-CHMP4B (% 4-107)", "setting": "[1]; screened at 1 µM, mean ± S.D., Supplemental Table 2", "value": "100.00 ± 17.20", "unit": "% 4-107"}, {"measurement": "GFP-CHMP4B (% 4-107)", "setting": "[1]; screened at 1 μM, starvation media, 1 hour, foci intensity per cell normalized to 4-107, mean ± SD, Table 1, listed as 1", "value": "100.00 ± 17.20", "unit": "% 4-107"}, {"measurement": "solubility thermodynamic at 16 h", "setting": "[2]", "value": 17, "unit": "µM"}, {"measurement": "Papp A→B at 10 μM", "setting": "[3]", "value": 0.03, "unit": "×10⁻⁶ cm/s"}, {"measurement": "Papp B→A at 10 μM", "setting": "[3]", "value": 0.3, "unit": "×10⁻⁶ cm/s"}, {"measurement": "efflux ratio at 10 μM", "setting": "[3]", "value": 10.3}, {"measurement": "Liver microsomal stability, remaining after 1 h", "setting": "[4]", "value": 71.83, "unit": "%"}, {"measurement": "microsomal CLint at 1 μM", "setting": "[4]; read-out: In vitro intrinsic clearance, Clint", "value": 11.8, "unit": "µL/min/mg"}, {"measurement": "half-life at 1 μM", "setting": "[4]; read-out: Liver microsomal stability, T1/2", "value": 1.95, "unit": "h"}, {"measurement": "fraction unbound at 5 μM", "setting": "[5]", "value": 0.0007}, {"measurement": "tumor growth", "setting": "[6]; from day 14 after engraftment, B6 mice", "value": "significantly reduced tumor growth"}, {"measurement": "mice that tolerated treatment", "setting": "[6]; tumor-bearing B6 mice", "value": "7 of 10"}, {"measurement": "decrease of VPS4B Tagg", "setting": "[7]", "value": "approximately 3 °C"}]}
